The test system of data set [1] is Staphylococcus aureus (NCTC10788).
Description: (§1) The antimicrobial activity of each synthetic peptide was evaluated using the broth dilution method (Wiegand et al., [2008]). In brief, different concentrations of the peptides were incubated with microorganisms under defined conditions. Six different microorganisms were used in the assay: the Gram-positive bacteria Staphylococcus aureus (NCTC10788), Enterococcus faecalis (NCTC12697), and methicillin-resistant Staphylococcus aureus (MRSA) (NCTC 12493); the Gram-negative bacteria Escherichia coli (NCTC 10418) and Pseudomonas aeruginosa (ATCC 27853); and the yeast Candida albicans (NCYC 1467). Each microorganism was cultured in fresh Mueller-Hinton broth (MHB) overnight and then subcultured in fresh medium to a cell density equivalent to 10^8 colony-forming units (CFU)/ml. The microbial suspension was diluted with fresh MHB to a concentration of 1 × 10^5 CFU/ml. Peptide samples were dissolved in the culture medium MHB to prepare a 100-fold stock solutions and then 1 μl of each peptide solution was mixed with 99 μl of diluted bacterial culture to get a final concentration range from 1 to 512 μg/ml in two-fold dilution. […] From these wells, 10 μl of the overnight culture were added to a Mueller-Hinton agar (MHA) plate and cultured at 37°C for 16–20 h.
Data set [2] deals with Pseudomonas aeruginosa (ATCC 27853).
Description: as §1
For data set [3], the system named is S. aureus biofilm. It is filed as cell-based, Staphylococcus aureus. As to conditions: for MBEC: 48 h. As to the method:
MBIC and MBEC assays were performed using microtiter plates based on a modified 2,3,5-triphenyl tetrazolium chloride (TTC) method (Sabaeifard et al., [2014]). Overnight cultures were washed with sterile phosphate-buffered saline (PBS) and diluted with fresh broth to 10^7 CFU/ml. […] For the MBEC assay, 200 μl of inoculum was placed in a flat-bottomed microtiter plate for 48 h to form mature biofilms. Following sufficient growth time, mature biofilms were washed twice to remove the planktonic cells and incubated with a series of peptide concentrations (1–512 μg/ml) at 37°C for 20–24 h. After sufficient growth, plates were washed twice with sterile PBS followed by the addition of fresh medium (200 μl per well) and stained with 50 μl 1% TTC (g/v) solution for 5 h. After incubation, 200 μl of the supernatant from each well were transferred to a new plate and their absorbance values were measured at 470 nm using a Synergy HT plate reader (BioTek, USA).

Data set [4] concerns methicillin-resistant Staphylococcus aureus (MRSA) (NCTC 12493).
Description: as §1
For data set [5], the system named is Enterococcus faecalis (NCTC12697).
Description: as §1
For data set [6], the system named is Candida albicans (NCYC 1467).
Description: as §1
Data set [7] relates to horse erythrocytes. It is filed as cell-based. As to the method:
The haemolysis assay was performed by mixing the peptides with mammalian erythrocytes obtained from fresh defibrinated horse blood. An appropriate volume of horse blood was transferred and washed with PBS until the supernatant was clear. A series of peptide solutions were incubated with a 2% suspension of red blood cells at final concentrations of 1-512 μg/ml at 37°C for 2 h. For positive and negative controls, the red blood cells were incubated with 1% Triton-X 100 and PBS, respectively. After incubation, 200 μl of the supernatant from each sample was transferred to a microtiter plate and the absorbance at 550 nm was measured with a Synergy HT plate reader (BioTek, USA). The therapeutic index (TI), a parameter recommended by the US FDA to indicate safety/efficacy usage, was calculated as the peptide concentration causing 50% haemolysis of the red bloods cells (HC50) divided by the geometric mean of the peptide MICs against the relevant bacteria (GM). […] In the former case, the MIC that was used when no inhibition was observed was the 2-fold maximum tested value ([…] al., [2016]). Data were analyzed to obtain the mean and standard error of responses. The statistical analyses were performed by one-way ANOVA and the statistical significance of the differences was indicated as ^*p < 0.05, ^**p < 0.01, ^***p < 0.001, and ^****p < 0.0001. The dose-response curves were constructed using a “best-fit” algorithm and HC50 was calculated through the data analysis package provided in GraphPad Prism 6 (GraphPad Software, USA).

For data set [8], the system named is E. coli.
Description: The stability of the peptides was investigated by incubating them with serum and evaluating the loss of antimicrobial activity. […] Following a 4 h incubation at 37°C, the peptide solutions were briefly centrifuged and 1 μl of each concentration was mixed with 99 μl of diluted bacterial culture (5 × 10^5 CFU/ml) in a 96-well plate. The plate was then incubated at 37°C for 16–20 h. The MICs in the presence of serum were determined by use of a Synergy HT plate reader (BioTek, USA).
Data set [9] concerns Escherichia coli (NCTC 10418).
Description: as §1

≈ marks a conversion by molar mass, not a printed value. Non-standard residues stand in square brackets, D forms with d. Residues, ends and D or L forms follow the SMILES beside them. No end group written: not given here. Where only a bound is given, the exact number is not on record here.

Here are results for four molecules from publication PMC5395648, “Targeted Modification of a Novel Amphibian Antimicrobial Peptide from Phyllomedusa tarsius to Enhance Its Activity against MRSA and Microbial Biofilm” (Frontiers in Microbiology, 2017).

What is called MIC is the lowest concentration that inhibits growth of the organism. In general, HC50 refers to the concentration giving 50% haemolysis.

For the molecule LLGMIPVAIKAISALSKL-NH2 [medusin-PT1], the MBC is 16 µg/mL in data set [1]; >512/>512 μg/ml in [2]; 32 µg/mL in [4]; 32/32 μg/ml in data set [5]; 16/16 μg/ml in data set [6]. Also, the MIC in data set [1] was 8 µg/mL; in [2], >512/>512 μg/ml; in data set [4] it was 16 µg/mL; in [5] it was 32/32 μg/ml; in data set [6], 16/16 μg/ml. Also, the MBIC in [3] worked out at 32 µg/mL. In addition, the MBEC in data set [3] came to 128 µg/mL. Moreover, the HC50 in data set [7] turned out to be 102.2 µg/mL. For the same molecule, in [8], the “MIC after serum degradation 4 h” value is greater than 512 µg/mL.

Consider LLGMIPVAITAISALSKL-NH2 [medusin-PT], for which the MBC in data set [1] is 128 µg/mL; in data set [2], >512/>512 μg/ml; in [9], >512/>512 μg/ml; in [4], >512/>512 μg/ml; in data set [5], >512/>512 μg/ml; in data set [6], >512/>512 μg/ml. The MIC was 64 µg/mL in [1], >512/>512 μg/ml in data set [4], >512/>512 μg/ml in [5] and >512/>512 μg/ml in [6]. Also, the MBIC in data set [3] was determined as 512 µg/mL. Besides, the MBEC in [3] was greater than 512 µg/mL. In addition, in [7], the HC50 was determined as 1.814e+06 µg/mL. Also, the “haemolytic activity (in words)” value in [7] was “extremely low haemolytic activity”.

As for `CC[C@H](C)[C@H](NC(=O)[C@H](C)NC(=O)[C@H](CCCCN)NC(=O)[C@@H](NC(=O)[C@H](C)NC(=O)[C@@H](NC(=O)[C@@H]1CCCN1C(=O)[C@@H](NC(=O)[C@H](CCSC)NC(=O)CNC(=O)[C@@H](CC(C)C)NC(=O)[C@@H](N)CC(C)C)[C@@H](C)CC)C(C)C)[C@@H](C)CC)C(=O)N[C@@H](CO)C(=O)N[C@@H](C)C(=O)N[C@@H](CC(C)C)C(=O)N[C@@H](CO)C(=O)N[C@@H](CCCCN)C(=O)N[C@@H](CC(C)C)C(N)=O` [medusin-PT1a] (H-L[dL]GMIPVAIKAISALSKL-NH2), the MBC in [1] is 16 µg/mL (≈ 8.71 µM); in data set [2] it was greater than 512 µg/mL; in [9], 128/128 μg/ml; in data set [4] it was 32 µg/mL (≈ 17.4 µM); in data set [5], 32/32 μg/ml; in [6] it was 8/8 μg/ml. Also, the MIC in [1] is 8 µg/mL (≈ 4.35 µM); in data set [2] it was 128 µg/mL (≈ 69.7 µM); in [9], 128/128 μg/ml; in data set [4] it was 16 µg/mL (≈ 8.71 µM); in data set [5], 32/32 μg/ml; in data set [6] it was 8/8 μg/ml. Besides, in data set [3], the MBIC is 32 µg/mL. In addition, the MBEC in [3] is 64 µg/mL. Moreover, in [7], the HC50 worked out at 226.7 µg/mL.

Turning to LLGMIKVAITAISALSKL-NH2 [medusin-PT2], the MBC in data set [1] is 16 µg/mL; in data set [2] it was >512/>512 μg/ml; in [4], 32/32 μg/ml; in data set [5], 32/32 μg/ml; in [6] it was 8/8 μg/ml. Moreover, the MIC in data set [1] was 8 µg/mL; in data set [4] it was 32/32 μg/ml; in data set [5], 32/32 μg/ml; in data set [6], 8/8 μg/ml. In [3], the MBIC was determined as 32 µg/mL. For the same molecule, the MBEC in data set [3] came to 256 µg/mL. The HC50 in data set [7] worked out at 93.83 µg/mL.
